Measurements from publication PMC9944328 (Nature Communications, 2023).
Where two headings read alike, the source gives them in different places.

Test system: SSTR2 mutants
Assay: NanoBiT β-arrestin 1 recruitment assay, HEK293 (SSTR2 mutants);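 for Emax: percent of the maximal wild-type SSTR2 response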;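 for Top: percent of maximal wild-type response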
Type: cell-based, human
Parameters: Bottom / Span / Bottom (best-fit) / Span (best-fit) / Best-fit values Bottom / Best-fit values Span / Bottom (best-fit value) / Span (best-fit value):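 percent of maximal wild-type response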
Conditions: for EC50: read-out: EC50
Description: The NanoBiT β-arrestin 1 recruitment assays were carried out according to the method described previously. […] Human full-length SSTR wild-type and mutant vectors were C-terminally fused with a 15-amino acid flexible linker and the small fragment (SmBiT). HEK293 cells were seeded into six-well microplates at a density of 1.0 × 10^6 cells/well and cultured for 24 h at 37 °C with 5% CO2. After that, cells were co-transfected with pcDNA3.1+ vectors encoding SSTR wild-type or mutants and human β-arrestin 1. After transfecting for 24 h, the transfected cells were suspended and seeded into white 96-well plates, and then cultured at 37 °C overnight. After that the medium in each well was exchanged for 90 μl of 0.01% bovine serum albumin containing 20 μl of 50 μM coelenterazine h (Carbosynth) diluted in the HBSS assay buffer and incubated for 40 min at room temperature. Then, ligands diluted in the assay buffer was added to each well and the luminescence intensity was measured using the Synergy H1 microplate reader and detected at room temperature in a time period. All data presented are means of at least three independent experiments.

[1] = best-fit value, T194A-1 (run 1)
[2] = best-fit value, T194A-2 (run 2)
[3] = best-fit value, T194A-3 (run 3)
[4] = best-fit value, V103A-1 (run 1)
[5] = best-fit value, V103A-2 (run 2)
[6] = best-fit value, V103A-3 (run 3)
[7] = β-arrestin recruitment, SSTR2 F127(3.37)A, n=3
[8] = β-arrestin recruitment, SSTR2 I195(45.52)A, n=3, ND = not detected
[9] = β-arrestin recruitment, SSTR2 I284ECL3A, n=3
[10] = β-arrestin recruitment, SSTR2 L290(7.31)A, n=3
[11] = β-arrestin recruitment, SSTR2 P286ECL3A, n=3
[12] = β-arrestin recruitment, SSTR2 S279(6.58)A, n=3
[13] = β-arrestin recruitment, SSTR2 S285ECL3A, n=3
[14] = β-arrestin recruitment, SSTR2 T287ECL3A, n=3
[15] = β-arrestin recruitment, SSTR2 V103(2.64)A, n=3, ND = not detected
[16] = β-arrestin recruitment, SSTR2 W188ECL3A, n=3
[17] = β-arrestin recruitment, SSTR2 W269(6.48)A, n=3
[18] = β-arrestin recruitment, SSTR2 Y50(1.39)A, n=3
[19] = β-arrestin recruitment, SSTR2 Y205(5.35)A, n=3
[20] = β-arrestin recruitment, SSTR2 Y302(7.43)A, n=3

`C[C@@H](O)[C@@H]1NC(=O)[C@H](CCCCN)NC(=O)[C@@H](Cc2c[nH]c3ccccc23)NC(=O)[C@H](Cc2ccccc2)NC(=O)[C@@H](NC(=O)[C@H](N)Cc2ccccc2)CSSC[C@@H](C(=O)N[C@H](CO)[C@@H](C)O)NC1=O` [octreotide] was tested, and the LogEC50 (best-fit value, L99A-3 (run 3)) was -6.902, the Span (best-fit value, L99A-3 (run 3)) was 131.2 and the Top (best-fit value, L99A-3 (run 3)) was 128.3. For the same molecule, the LogEC50 [1] was -7.278, the Span [1] was 56.43 and the EC50 [1] was 52.8 nM. It also gave a LogEC50 [2] of -7.381, a Span [2] of 55.9 and an EC50 [2] of 41.6 nM. For the same molecule, the LogEC50 [3] was -7.29, the Span [3] was 56.81 and the EC50 [3] was 51.3 nM. For the same molecule, the Bottom [4] was -1.867, the LogEC50 [4] was -7.141 and the Span [4] was 86.59. The Top [4] was 84.73, the EC50 [4] was 72.2 nM and the Bottom [5] was -2.214. It also gave a LogEC50 [5] of -7.263, a Span [5] of 87.54 and a Top [5] of 85.33. The EC50 [5] was 54.6 nM, the Bottom [6] was -2.646 and the LogEC50 [6] was -7.193. It also gave a Span [6] of 87.08, a Top [6] of 84.44 and an EC50 [6] of 64.1 nM. The Bottom (best-fit value, Y50A-1 (run 1)) was -0.1631, the LogEC50 (best-fit value, Y50A-1 (run 1)) was -8.742 and the Span (best-fit value, Y50A-1 (run 1)) was 56.29. For the same molecule, the Top (best-fit value, Y50A-1 (run 1)) was 56.13, the EC50 (best-fit value, Y50A-1 (run 1)) was 1.81 nM and the Bottom (best-fit value, Y50A-2 (run 2)) was -2.513. For the same molecule, the LogEC50 (best-fit value, Y50A-2 (run 2)) was -7.952, the Span (best-fit value, Y50A-2 (run 2)) was 74.92 and the Top (best-fit value, Y50A-2 (run 2)) was 72.41. It also gave an EC50 (best-fit value, Y50A-2 (run 2)) of 11.2 nM, a Bottom (best-fit value, Y50A-3 (run 3)) of -0.965 and a LogEC50 (best-fit value, Y50A-3 (run 3)) of -8.796. The Span (best-fit value, Y50A-3 (run 3)) was 58.15, the Top (best-fit value, Y50A-3 (run 3)) was 57.19 and the EC50 (best-fit value, Y50A-3 (run 3)) was 1.6 nM. It also gave a Bottom (best-fit, I284A-1) of 2.896, a LogEC50 (best-fit, I284A-1) of -7.134 and a Span (best-fit, I284A-1) of 74.77. The Top (best-fit, I284A-1) was 77.67, the EC50 (best-fit, I284A-1) was 73.4 nM and the Bottom (best-fit, I284A-2) was -1.923. It also gave a LogEC50 (best-fit, I284A-2) of -7.815, a Span (best-fit, I284A-2) of 108.7 and a Top (best-fit, I284A-2) of 106.8. The EC50 (best-fit, I284A-2) was 15.3 nM, the Bottom (best-fit, I284A-3) was 2.808 and the LogEC50 (best-fit, I284A-3) was -7.106. The Span (best-fit, I284A-3) was 79.8, the Top (best-fit, I284A-3) was 82.61 and the EC50 (best-fit, I284A-3) was 78.4 nM. It also gave a LogEC50 (best-fit, P286A-1) of -8.053, a Span (best-fit, P286A-1) of 62.29 and a Top (best-fit, P286A-1) of 66.68. It also gave an EC50 (best-fit, P286A-1) of 8.86 nM, a Bottom (best-fit, P286A-2) of 2.819 and a LogEC50 (best-fit, P286A-2) of -8.168. The Span (best-fit, P286A-2) was 59.43, the Top (best-fit, P286A-2) was 62.25 and the EC50 (best-fit, P286A-2) was 6.79 nM. For the same molecule, the Bottom (best-fit, P286A-3) was 4.198, the LogEC50 (best-fit, P286A-3) was -8.213 and the Span (best-fit, P286A-3) was 84.87. For the same molecule, the Top (best-fit, P286A-3) was 89.07, the EC50 (best-fit, P286A-3) was 6.12 nM and the Bottom (best-fit, S285A-1) was 2.2. For the same molecule, the LogEC50 (best-fit, S285A-1) was -9.537, the Span (best-fit, S285A-1) was 70 and the Top (best-fit, S285A-1) was 72.2. For the same molecule, the EC50 (best-fit, S285A-1) was 0.29 nM, the Bottom (best-fit, S285A-2) was 3.756 and the LogEC50 (best-fit, S285A-2) was -9.426. For the same molecule, the Span (best-fit, S285A-2) was 71.47, the Top (best-fit, S285A-2) was 75.22 and the EC50 (best-fit, S285A-2) was 0.375 nM. It also gave a Bottom (best-fit, S285A-3) of 9.309, a LogEC50 (best-fit, S285A-3) of -8.736 and a Span (best-fit, S285A-3) of 80.53. It also gave a Top (best-fit, S285A-3) of 89.84, an EC50 (best-fit, S285A-3) of 1.84 nM and a Bottom (best-fit, T194A-1) of -0.5401. The Top (best-fit, T194A-1) was 55.89, the Bottom (best-fit, T194A-2) was -0.9576 and the Top (best-fit, T194A-2) was 54.95. It also gave a Bottom (best-fit, T194A-3) of -0.591, a Top (best-fit, T194A-3) of 56.22 and a Bottom (best-fit, T287A-1) of 4.198. It also gave a LogEC50 (best-fit, T287A-1) of -8.213, a Span (best-fit, T287A-1) of 84.87 and a Top (best-fit, T287A-1) of 89.07. For the same molecule, the EC50 (best-fit, T287A-1) was 6.12 nM, the Bottom (best-fit, T287A-2) was 5.592 and the LogEC50 (best-fit, T287A-2) was -8.324. It also gave a Span (best-fit, T287A-2) of 86.73, a Top (best-fit, T287A-2) of 92.33 and an EC50 (best-fit, T287A-2) of 4.75 nM. For the same molecule, the Bottom (best-fit, T287A-3) was 0.1327, the LogEC50 (best-fit, T287A-3) was -8.522 and the Span (best-fit, T287A-3) was 80.53. It also gave a Top (best-fit, T287A-3) of 80.66, an EC50 (best-fit, T287A-3) of 3 nM and a LogEC50 (best-fit, W188A-1) of -8.611. For the same molecule, the Span (best-fit, W188A-1) was 57.05, the Top (best-fit, W188A-1) was 61.7 and the EC50 (best-fit, W188A-1) was 2.45 nM. For the same molecule, the Bottom (best-fit, W188A-2) was 0.0794, the LogEC50 (best-fit, W188A-2) was -8.245 and the Span (best-fit, W188A-2) was 81.84. The Top (best-fit, W188A-2) was 81.92, the EC50 (best-fit, W188A-2) was 5.69 nM and the Bottom (best-fit, W188A-3) was 6.02. For the same molecule, the LogEC50 (best-fit, W188A-3) was -8.295, the Span (best-fit, W188A-3) was 58.94 and the Top (best-fit, W188A-3) was 64.96. The EC50 (best-fit, W188A-3) was 5.07 nM, the Emax (β-arrestin recruitment, I130A, earlier manuscript version quoted by reviewer, superseded) was 60% and the Emax (β-arrestin recruitment, SSTR2 D295(7.36)A, detected at 10 μM, n=3) was 119.20±34.68 %WT. For the same molecule, the EC50 (β-arrestin recruitment, SSTR2 D295(7.36)A, n=3) was 319 ± 6.78 nM, the Emax [7] was 52.62±2.57 %WT and the EC50 [7] was 4.33 ± 1.53 nM. It also gave an Emax (β-arrestin recruitment, SSTR2 F208(5.38)A, n=3) of 75.93±9.81 %WT, an EC50 (β-arrestin recruitment, SSTR2 F208(5.38)A, n=3, ND = not detected) of 163 ± 6.17 nM and an Emax (β-arrestin recruitment, SSTR2 F265(6.44)A, detected at 10 μM, n=3 octreotide, 4 paltusotine) of 67.17±9.75 %WT. It also gave an Emax (β-arrestin recruitment, SSTR2 I130(3.40)A, detected at 10 μM, n=3) of 76.52±9.52 %WT, an Emax [8] of 59.10±0.47 %WT and an EC50 [8] of 54.3 ± 4.1 nM. For the same molecule, the Emax [9] was 89.03±9.00 %WT, the EC50 [9] was 55.7 ± 2.03 nM and the Emax (β-arrestin recruitment, SSTR2 L99(2.60)A, n=3) was 96.13±25.27 %WT. It also gave an EC50 (β-arrestin recruitment, SSTR2 L99(2.60)A, n=3, ND = not detected) of 91.6 ± 3.34 nM, an Emax [10] of 85.66±1.04 %WT and an EC50 [10] of 1.8 nM. It also gave an Emax (β-arrestin recruitment, SSTR2 P220(5.50)A, n=3) of 61.16±16.24 %WT, an EC50 (β-arrestin recruitment, SSTR2 P220(5.50)A, n=3 octreotide, 4 paltusotine, ND = not detected) of 99.8 ± 9 nM and an Emax [11] of 76.51±12.11 %WT. The EC50 [11] was 6.35 ± 1.59 nM, the Emax (β-arrestin recruitment, SSTR2 Q102(2.63)A, detected at 10 μM, n=3) was 57.95±5.20 %WT and the Emax [12] was 87.86±7.76 %WT. For the same molecule, the EC50 [12] was 11.9 ± 4.76 nM, the Emax [13] was 79.09±5.45 %WT and the EC50 [13] was 0.84 nM. For the same molecule, the Emax (β-arrestin recruitment, SSTR2 T194(45.51)A, n=3) was 55.69±0.38 %WT, the EC50 (β-arrestin recruitment, SSTR2 T194(45.51)A, n=3, ND = not detected) was 48.7 ± 3.38 nM and the Emax [14] was 87.90±2.95 %WT. It also gave an EC50 [14] of 4.71 ± 8.35 nM, an Emax [15] of 84.83±0.26 %WT and an EC50 [15] of 63.7 ± 5.11 nM. The Emax [16] was 69.46±6.21 %WT, the EC50 [16] was 4.34 ± 9.5 nM and the Emax [17] was 33.36±2.81 %WT. It also gave an EC50 [17] of 55.3 ± 1.35 nM, an Emax [18] of 61.91±5.26 %WT and an EC50 [18] of 4.87 ± 3.17 nM. The Emax [19] was 108.30±13.91 %WT, the EC50 [19] was 8.52 ± 5.74 nM and the Emax [20] was 109.40±18.82 %WT. The EC50 [20] was 1.82 nM.
